# Earlier results, collected in patent US10912302B2, “Glyphosate salt herbicidal composition” (Monsanto Technology LLC, priority 2004, dated 2021).
# Details: 25° C.
compound,measurement,value
"O=C(O)CNCP(=O)(O)O [Glyphosate, glyphosate]",solubility in water,1.16 % by weight
